Laboratory results taken from PubChem BioAssay (NCI).
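All cell lines were grown in 96-well plates and treated with compound for 48 hours. Abbreviation: GI50, concentration required for 50% inhibition of growth. TGI denotes the concentration required for complete inhibition of growth.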

Assays:
Experiment in all cases: NCI tumour cell line growth inhibition, 48 h
NCI-H23 lung = test system: NCI-H23 lung
RPMI-8226 leukemia = test system: RPMI-8226 leukemia
SF-295 CNS = test system: SF-295 CNS
CAKI-1 renal = test system: CAKI-1 renal
SK-MEL-2 melanoma = test system: SK-MEL-2 melanoma
DMS 114 small cell lung = test system: DMS 114 small cell lung
TK-10 renal = test system: TK-10 renal
T-47D breast = test system: T-47D breast
SF-268 CNS = test system: SF-268 CNS
SK-MEL-5 melanoma = test system: SK-MEL-5 melanoma
UACC-62 melanoma = test system: UACC-62 melanoma
SF-539 CNS = test system: SF-539 CNS
DLD-1 colon = test system: DLD-1 colon
UACC-257 melanoma = test system: UACC-257 melanoma
U251 CNS = test system: U251 CNS
HCT-15 colon = test system: HCT-15 colon
A498 renal = test system: A498 renal
NCI/ADR-RES ovarian = test system: NCI/ADR-RES ovarian
MDA-MB-435 = test system: MDA-MB-435
EKVX NSCLC = test system: EKVX NSCLC
LOX IMVI melanoma = test system: LOX IMVI melanoma
ACHN renal = test system: ACHN renal
OVCAR-5 ovarian = test system: OVCAR-5 ovarian
SNB-19 CNS = test system: SNB-19 CNS
BT-549 breast = test system: BT-549 breast
IGROV1 ovarian = test system: IGROV1 ovarian
SNB-75 CNS = test system: SNB-75 CNS
SW-620 colon = test system: SW-620 colon
SK-OV-3 ovarian = test system: SK-OV-3 ovarian
NCI-H522 lung = test system: NCI-H522 lung
PC-3 prostate = test system: PC-3 prostate
SN12C renal = test system: SN12C renal
HCC-2998 colon = test system: HCC-2998 colon
M19-MEL melanoma = test system: M19-MEL melanoma
HS 578T breast = test system: HS 578T breast
786-0 renal = test system: 786-0 renal
RXF 393 renal = test system: RXF 393 renal
OVCAR-3 ovarian = test system: OVCAR-3 ovarian
HOP-92 NSCLC = test system: HOP-92 NSCLC
MDA-MB-231 breast = test system: MDA-MB-231 breast
DMS 273 small cell lung = test system: DMS 273 small cell lung
HOP-18 NSCLC = test system: HOP-18 NSCLC
K-562 leukemia = test system: K-562 leukemia
XF 498 CNS = test system: XF 498 CNS
SK-MEL-28 melanoma = test system: SK-MEL-28 melanoma
CCRF-CEM leukemia = test system: CCRF-CEM leukemia
NCI-H460 lung = test system: NCI-H460 lung
OVCAR-8 ovarian = test system: OVCAR-8 ovarian
HCT-116 colon = test system: HCT-116 colon
OVCAR-4 ovarian = test system: OVCAR-4 ovarian
RXF-631 renal = test system: RXF-631 renal
DU-145 prostate = test system: DU-145 prostate
MALME-3M melanoma = test system: MALME-3M melanoma
KM12 colon = test system: KM12 colon
KM20L2 colon = test system: KM20L2 colon
HL-60(TB) leukemia = test system: HL-60(TB) leukemia
MDA-N = test system: MDA-N
LXFL 529 NSCLC = test system: LXFL 529 NSCLC
UO-31 renal = test system: UO-31 renal
M14 melanoma = test system: M14 melanoma
COLO 205 colon = test system: COLO 205 colon
A549 NSCLC = test system: A549 NSCLC
HT29 colon = test system: HT29 colon
HOP-62 NSCLC = test system: HOP-62 NSCLC
MOLT-4 leukemia = test system: MOLT-4 leukemia
SNB-78 CNS = test system: SNB-78 CNS
NCI-H226 lung = test system: NCI-H226 lung

CNC(=O)OC1/C(C)=C\C(C)C(O)C(OC)CC(C)CC2=C(OC)C(=O)C=C(C2=O)N(C)C(=O)/C(C)=C/C=C\C1OC (stereo not given)
TGI (NCI-H23 lung): 15 µM | TGI (RPMI-8226 leukemia): 13.2 µM | TGI (SF-295 CNS): 46.5 µM | TGI (CAKI-1 renal): 20.8 µM | TGI (SK-MEL-2 melanoma): 21.9 µM | TGI (DMS 114 small cell lung): 12.6 µM | TGI (TK-10 renal): 22 µM | TGI (T-47D breast): 6.14 µM | TGI (SF-268 CNS): 26.1 µM | TGI (SK-MEL-5 melanoma): 21.5 µM | TGI (UACC-62 melanoma): 17.6 µM | GI50 (SF-539 CNS): < 0.1 µM | TGI (SF-539 CNS): 23.3 µM | TGI (DLD-1 colon): 16.4 µM | TGI (UACC-257 melanoma): 19 µM | TGI (U251 CNS): 31.4 µM | TGI (HCT-15 colon): 17.5 µM | TGI (A498 renal): 42.8 µM | TGI (NCI/ADR-RES ovarian): 62 µM | GI50 (MDA-MB-435): > 100 µM | TGI (MDA-MB-435): > 100 µM | TGI (EKVX NSCLC): 24.7 µM | TGI (LOX IMVI melanoma): 16.6 µM | TGI (ACHN renal): 20.9 µM | TGI (OVCAR-5 ovarian): 22.7 µM | TGI (SNB-19 CNS): > 75.8 µM | TGI (BT-549 breast): 18.5 µM | TGI (IGROV1 ovarian): 24.6 µM | TGI (SNB-75 CNS): 28.6 µM | TGI (SW-620 colon): 12.5 µM | TGI (SK-OV-3 ovarian): 30 µM | TGI (NCI-H522 lung): 6.09 µM | TGI (PC-3 prostate): 26 µM | TGI (SN12C renal): 16.5 µM | TGI (HCC-2998 colon): 21.4 µM | TGI (M19-MEL melanoma): 14.7 µM | TGI (HS 578T breast): 15.3 µM | TGI (786-0 renal): 18.2 µM | TGI (RXF 393 renal): 17.9 µM | TGI (OVCAR-3 ovarian): 16 µM | TGI (HOP-92 NSCLC): 16 µM | TGI (MDA-MB-231 breast): 6.44 µM | TGI (DMS 273 small cell lung): 14.8 µM | TGI (HOP-18 NSCLC): 22.7 µM | TGI (K-562 leukemia): 12.5 µM | TGI (XF 498 CNS): 10 µM | TGI (SK-MEL-28 melanoma): 19.2 µM | TGI (CCRF-CEM leukemia): 4.08 µM | TGI (NCI-H460 lung): 39.7 µM | TGI (OVCAR-8 ovarian): 21.1 µM | TGI (HCT-116 colon): 21.1 µM | TGI (OVCAR-4 ovarian): 22 µM | TGI (RXF-631 renal): 41.2 µM | TGI (DU-145 prostate): > 41.8 µM | TGI (MALME-3M melanoma): 27.1 µM | TGI (KM12 colon): 26.3 µM | TGI (KM20L2 colon): 15.5 µM | GI50 (HL-60(TB) leukemia): 0.918 µM | TGI (HL-60(TB) leukemia): 14.1 µM | TGI (MDA-N): 10.7 µM | TGI (LXFL 529 NSCLC): 19.6 µM | TGI (UO-31 renal): 31.7 µM | TGI (M14 melanoma): 18.4 µM | TGI (COLO 205 colon): 7.9 µM | TGI (A549 NSCLC): 43.7 µM | TGI (HT29 colon): 17 µM | TGI (HOP-62 NSCLC): 24 µM | TGI (MOLT-4 leukemia): 3.74 µM | TGI (SNB-78 CNS): 30.3 µM | TGI (NCI-H226 lung): 36.7 µM
